Our source for the IC50, DC50 and Dmax values is patent US20250214991A1 (Oncopia Therapeutics, Inc. d/b/a/ SK Life Science Labs, priority 2022, published 2025).

One may read the pIC50 as the negative decadic logarithm of the IC50, by convention in mol/L. The low end stands for a large IC50, the high end for a small IC50.

pIC50: −log10 of the molar value.

Assay [1] addresses CRBN/DDB1 (Homo sapiens (Human), UniProt Q96SW2). In words: IC50 measurements for binding to CRBN/DDB1 (HTRF). To be noted: His tagged CRBN+DDB, Cy5-labeled Thalidomide probe, one hour. Here is the method:
In vitro Assay: IC50 Measurements for binding to CRBN/DDB1 (Table E1)
The binding potency was determined using HTRF assay technology (Perkin Elmer). Compounds were serially diluted in DMSO and 0.2 μL volume was transferred to white 384-well plate. The reaction was conducted in total volume of 20 μL with addition of 2 nM His tagged CRBN+DDB−DLS7+CXU4 (Wuxi, catalogue #RP210521GA) to compounds followed by addition of 60 nM Fluorescent probe Cy5-labeled Thalidomide (Tenova Pharma, catalogue #T52461), and 0.4 nM of MAb Anti-6HIS Tb cryptate Gold (Cisbio, catalogue #61HI2TLA in the assay buffer (50 mM HEPES pH 7.5, 1 mM TCEP, 0.01% Brij-35, 50 mM NaCl, and 0.1% BSA). After one hour incubation at room temperature, the HTRF signals were read on Envision reader (Perkin Elemer). Data was analyzed using XLfit using four parameters dose response curve to determine IC50s. A: IC50<0.1 μM; B: 0.1 μM<IC50<[…]; C: 0.5 μM<IC50<1 μM; D: 1 μM<IC50<5 μM; E: 5 μM<IC50<10 μM

Assay [2] addresses IKZF1 (Homo sapiens (Human), UniProt Q13422+Q96SW2). The assay is described as follows: In vitro IKZF1 HiBit Assay (HEK293T Flp-in-HiBiT-IKZF1 stable cell line). The class given is cell-based. To be noted: HEK293T Flp-in-HiBiT-IKZF1 stable cell line, 6 hrs incubation; for DC50: read-out: IKZF1 HiBit DC50; for Dmax: HEK-293T, read-out: IKZF1 HiBit Dmax (%). An outline of the steps: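 HEK293T Flp-in cells carrying N-terminal HiBiT-tagged IKZF1 were exposed to compound (0.1% DMSO) for 6 h at 3000 cells/well. HiBiT luminescence was read after lytic LgBiT detection. DC50 and Dmax were taken from DMSO-normalized dose-response curves.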

In assay [3] the target is IKZF2 (Homo sapiens (Human), UniProt Q96SW2+Q9UKS7). In words: In vitro IKZF2 HiBit Assay (HEK293T Flp-in-HiBiT cells). To be noted: HEK293T Flp-in-HiBiT cells, 6 hrs incubation; for DC50: read-out: IKZF2 HiBit DC50; for Dmax: HEK-293T, read-out: IKZF2 HiBit Dmax (%). The class given is cell-based. The gist of the method:
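HEK293T Flp-in cells carrying an endogenous N-terminal HiBiT tag on IKZF2 were exposed to compound for 6 h at 0.1% DMSO. The dilution series was 11 doses at 3-fold, diluted from 1 mM. Nano-Glo HiBiT lytic luminescence, normalized to DMSO, gave DC50 for 50% degradation and Dmax across the concentration range, both reported in letter bins.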
A general note: With HiBiT, luminescence reflects the tagged protein that the partner subunit can reach.

Chain of CRBN/DDB1 (Q96SW2 whole entry, species assumed): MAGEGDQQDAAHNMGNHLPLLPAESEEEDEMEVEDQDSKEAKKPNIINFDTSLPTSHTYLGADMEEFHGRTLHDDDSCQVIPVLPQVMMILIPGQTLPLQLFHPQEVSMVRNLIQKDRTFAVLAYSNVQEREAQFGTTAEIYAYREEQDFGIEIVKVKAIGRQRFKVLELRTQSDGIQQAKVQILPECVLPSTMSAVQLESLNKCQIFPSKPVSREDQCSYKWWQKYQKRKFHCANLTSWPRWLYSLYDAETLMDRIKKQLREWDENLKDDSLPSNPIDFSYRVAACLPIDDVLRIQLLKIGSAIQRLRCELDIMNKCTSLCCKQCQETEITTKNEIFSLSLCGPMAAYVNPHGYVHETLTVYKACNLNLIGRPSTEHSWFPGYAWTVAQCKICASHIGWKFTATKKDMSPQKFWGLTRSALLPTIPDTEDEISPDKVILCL
Chain of CRBN/DDB1 (Q16531 whole entry partner, species assumed): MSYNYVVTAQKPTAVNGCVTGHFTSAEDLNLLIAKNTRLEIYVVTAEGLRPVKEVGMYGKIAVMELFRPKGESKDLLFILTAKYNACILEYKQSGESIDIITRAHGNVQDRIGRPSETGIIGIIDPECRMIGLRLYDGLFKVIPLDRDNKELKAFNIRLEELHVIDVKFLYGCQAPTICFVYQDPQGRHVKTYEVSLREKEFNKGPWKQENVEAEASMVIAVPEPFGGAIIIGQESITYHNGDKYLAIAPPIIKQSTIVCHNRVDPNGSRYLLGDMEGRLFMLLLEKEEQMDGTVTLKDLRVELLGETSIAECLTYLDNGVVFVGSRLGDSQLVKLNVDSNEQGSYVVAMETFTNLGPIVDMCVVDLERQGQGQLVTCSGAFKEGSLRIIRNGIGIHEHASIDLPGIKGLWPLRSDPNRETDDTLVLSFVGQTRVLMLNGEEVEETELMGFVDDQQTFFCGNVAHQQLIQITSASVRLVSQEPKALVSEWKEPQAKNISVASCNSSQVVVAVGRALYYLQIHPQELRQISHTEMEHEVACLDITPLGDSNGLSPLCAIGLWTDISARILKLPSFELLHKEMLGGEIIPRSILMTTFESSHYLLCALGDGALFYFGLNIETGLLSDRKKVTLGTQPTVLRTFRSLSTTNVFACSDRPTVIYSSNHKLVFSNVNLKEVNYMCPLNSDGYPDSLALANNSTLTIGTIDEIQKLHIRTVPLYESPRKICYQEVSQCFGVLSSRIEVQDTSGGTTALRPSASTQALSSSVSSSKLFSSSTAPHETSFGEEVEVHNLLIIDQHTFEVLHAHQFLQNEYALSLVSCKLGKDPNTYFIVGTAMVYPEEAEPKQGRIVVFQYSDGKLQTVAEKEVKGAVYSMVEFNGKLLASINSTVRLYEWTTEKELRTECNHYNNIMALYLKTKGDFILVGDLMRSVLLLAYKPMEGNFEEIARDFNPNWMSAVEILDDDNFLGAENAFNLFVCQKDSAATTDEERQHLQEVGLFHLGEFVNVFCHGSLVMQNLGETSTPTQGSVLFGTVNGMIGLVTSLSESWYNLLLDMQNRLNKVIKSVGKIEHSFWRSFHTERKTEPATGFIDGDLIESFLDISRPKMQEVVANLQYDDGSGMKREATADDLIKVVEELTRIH
Chain of IKZF1 (Q13422 whole entry): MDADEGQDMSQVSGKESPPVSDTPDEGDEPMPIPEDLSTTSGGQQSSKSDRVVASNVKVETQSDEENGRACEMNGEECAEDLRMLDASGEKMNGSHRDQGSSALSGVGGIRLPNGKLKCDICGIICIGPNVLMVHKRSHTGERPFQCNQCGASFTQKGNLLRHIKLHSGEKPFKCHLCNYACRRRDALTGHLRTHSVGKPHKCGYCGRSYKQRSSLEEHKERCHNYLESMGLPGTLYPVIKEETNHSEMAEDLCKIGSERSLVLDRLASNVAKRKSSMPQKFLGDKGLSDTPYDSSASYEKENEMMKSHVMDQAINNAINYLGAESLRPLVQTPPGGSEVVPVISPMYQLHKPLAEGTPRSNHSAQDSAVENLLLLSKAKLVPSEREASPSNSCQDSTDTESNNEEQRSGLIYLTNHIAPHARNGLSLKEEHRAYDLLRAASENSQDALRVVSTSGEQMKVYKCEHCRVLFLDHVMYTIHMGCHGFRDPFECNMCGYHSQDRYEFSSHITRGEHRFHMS
Chain of IKZF1 (Q96SW2 whole entry): as the sequence (Q96SW2 whole entry, species assumed) above
Chain of IKZF1 (Q16531 2-1140 partner): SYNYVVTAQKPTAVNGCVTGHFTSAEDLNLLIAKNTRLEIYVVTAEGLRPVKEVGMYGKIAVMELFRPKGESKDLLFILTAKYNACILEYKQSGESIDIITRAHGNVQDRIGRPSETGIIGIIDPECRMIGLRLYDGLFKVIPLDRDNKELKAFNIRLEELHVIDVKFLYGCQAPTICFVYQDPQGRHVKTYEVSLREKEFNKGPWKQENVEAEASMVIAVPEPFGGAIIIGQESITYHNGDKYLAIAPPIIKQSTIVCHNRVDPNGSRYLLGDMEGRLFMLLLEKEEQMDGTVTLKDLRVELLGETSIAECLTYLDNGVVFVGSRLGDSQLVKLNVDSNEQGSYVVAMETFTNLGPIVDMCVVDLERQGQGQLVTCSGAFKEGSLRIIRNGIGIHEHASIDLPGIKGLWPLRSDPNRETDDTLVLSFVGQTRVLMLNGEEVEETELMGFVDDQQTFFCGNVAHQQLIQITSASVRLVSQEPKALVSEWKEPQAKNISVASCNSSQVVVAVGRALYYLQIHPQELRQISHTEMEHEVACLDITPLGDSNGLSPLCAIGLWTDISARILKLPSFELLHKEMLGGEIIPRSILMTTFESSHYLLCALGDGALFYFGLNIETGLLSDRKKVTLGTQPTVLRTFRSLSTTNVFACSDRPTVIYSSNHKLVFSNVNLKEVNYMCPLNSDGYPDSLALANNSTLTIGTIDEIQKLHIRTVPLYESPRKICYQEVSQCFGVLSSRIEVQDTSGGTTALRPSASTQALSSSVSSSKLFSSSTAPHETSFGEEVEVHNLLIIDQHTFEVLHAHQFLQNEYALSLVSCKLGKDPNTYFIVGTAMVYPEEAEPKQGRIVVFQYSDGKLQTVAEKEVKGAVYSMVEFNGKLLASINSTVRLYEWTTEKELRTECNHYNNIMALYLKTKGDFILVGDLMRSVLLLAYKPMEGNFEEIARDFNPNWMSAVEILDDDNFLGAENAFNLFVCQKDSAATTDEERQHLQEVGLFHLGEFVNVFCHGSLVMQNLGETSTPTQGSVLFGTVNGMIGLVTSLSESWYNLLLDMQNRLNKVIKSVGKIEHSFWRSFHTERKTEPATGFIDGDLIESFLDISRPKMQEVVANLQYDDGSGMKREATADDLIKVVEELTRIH
Chain of IKZF2 (Q9UKS7 whole entry): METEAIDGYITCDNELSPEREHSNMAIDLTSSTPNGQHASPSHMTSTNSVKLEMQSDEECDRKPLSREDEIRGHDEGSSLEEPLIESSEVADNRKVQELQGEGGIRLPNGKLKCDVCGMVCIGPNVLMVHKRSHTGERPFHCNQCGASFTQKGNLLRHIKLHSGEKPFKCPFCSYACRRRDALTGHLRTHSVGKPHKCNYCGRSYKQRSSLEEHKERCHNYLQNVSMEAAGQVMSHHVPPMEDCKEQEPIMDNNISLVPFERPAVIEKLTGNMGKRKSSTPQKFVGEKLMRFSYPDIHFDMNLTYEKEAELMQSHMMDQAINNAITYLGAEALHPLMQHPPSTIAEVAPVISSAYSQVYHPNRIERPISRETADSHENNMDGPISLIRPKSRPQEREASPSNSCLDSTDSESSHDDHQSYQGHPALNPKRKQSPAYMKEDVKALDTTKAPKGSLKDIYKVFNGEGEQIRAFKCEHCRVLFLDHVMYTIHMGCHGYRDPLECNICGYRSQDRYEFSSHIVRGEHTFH
Chain of IKZF2 (Q96SW2 whole entry): as the sequence (Q96SW2 whole entry, species assumed) above
Chain of IKZF2 (Q16531 2-1140 partner): as the sequence (Q16531 2-1140 partner) above

Take `CCn1ccc2c(CN3CCC3)cc(-c3ccc4c(c3)CN(C3CCC(=O)NC3=O)C4=O)nc21` (stereo not shown) [Example 98, 3-(5-(4-(azetidin-1-ylmethyl)-1-ethyl-1H-pyrrolo[2,3-b]pyridin-6-yl)-1-oxoisoindolin-2-yl) piperidine-2,6-dione]: the pIC50 in assay [1] was more than 7.00. Besides, in assay [2], the DC50 is more than 10000 nM and the Dmax was less than 20%. Besides, in assay [3], the DC50 lay in the range of 1 to 10 nM and the Dmax is more than 80%.

In assay [1], `Cn1ccc2c(C3CCCCN3)cc(-c3ccc4c(c3)CN([C@H]3CCC(=O)NC3=O)C4=O)nc21` (stereo partly drawn) [Example 231, (3S)-3-(5-(1-methyl-4-(piperidin-2-yl)-1H-pyrrolo[2,3-b]pyridin-6-yl)-1-oxoisoindolin-2-yl) piperidine-2,6-dione] gave a pIC50 of 6.30 to 7.00. For the same compound, in assay [2], the DC50 fell in the range of 1 to 10 nM and the Dmax lay within 20 to 40%. Further, in assay [3], the DC50 lay within 10 to 100 nM and the Dmax lay within 40 to 60%.

For the compound `COC1CCN(Cc2cc(-c3ccc4c(c3)CN(C3CCC(=O)NC3=O)C4=O)nc3c2ccn3C)CC1` (stereo not shown) [Example 102, 3-(5-(4-((4-methoxypiperidin-1-yl)methyl)-1-methyl-1H-pyrrolo[2,3-b]pyridin-6-yl)-1-oxoisoindolin-2-yl) piperidine-2,6-dione], in assay [1], the pIC50 was 6.30 to 7.00. In addition, in assay [2], the DC50 was in the range of 10 to 100 nM and the Dmax was 20 to 40%. Moreover, in assay [3], the DC50 is less than 1 nM and the Dmax is more than 80%.

In assay [1], `C[C@@H]1CC[C@@H](C)N1Cc1cc(-c2ccc3c(c2)CN(C2CCC(=O)NC2=O)C3=O)nc2c1ccn2C` (stereo partly drawn) [Example 108, 3-(5-(4-(((2R,5R)-2,5-dimethylpyrrolidin-1-yl)methyl)-1-methyl-1H-pyrrolo[2,3-b]pyridin-6-yl)-1-oxoisoindolin-2-yl) piperidine-2,6-dione] gave a pIC50 of 6.00 to 6.30. In assay [2], the DC50 was more than 10000 nM and the Dmax is less than 20%. Further, in assay [3], the DC50 was in the range of 1 to 10 nM and the Dmax fell in the range of 60 to 80%.

`O=C1CCC(N2Cc3cc(-c4cc(CN5CCCC5)c5cn(C6COC6)nc5n4)ccc3C2=O)C(=O)N1` (stereo not shown) [Example 317, 3-(5-(2-(oxetan-3-yl)-4-(pyrrolidin-1-ylmethyl)-2H-pyrazolo[3,4-b]pyridin-6-yl)-1-oxoisoindolin-2-yl) piperidine-2,6-dione] had a pIC50 in assay [1] of 6.30 to 7.00. Besides, in assay [2], the DC50 is more than 10000 nM and the Dmax was less than 20%. In assay [3], the DC50 lay within 1 to 10 nM and the Dmax lay within 60 to 80%.

`Cc1cc(-c2ccc3c(c2)CN(C2CCC(=O)NC2=O)C3=O)nc2c1CCN2CCO` (stereo not shown) [Example 132, 3-(5-(1-(2-hydroxyethyl)-4-methyl-2,3-dihydro-1H-pyrrolo[2,3-b]pyridin-6-yl)-1-oxoisoindolin-2-yl) piperidine-2,6-dione] showed a pIC50 in assay [1] of 5.00 to 5.30. Besides, the results for the DC50 in assay [2] and in assay [3] were more than 10000 nM and 10 to 100 nM, respectively. Further, the Dmax in assay [2] is less than 20%; in assay [3], 40 to 60%.

`Nc1n[nH]c2c(CN3CC4COCC4C3)cc(-c3ccc4c(c3)CN(C3CCC(=O)NC3=O)C4=O)nc12` (stereo not shown) [Example 214, 3-(5-(3-amino-7-((tetrahydro-1H-furo[3,4-c]pyrrol-5 (3H)-yl)methyl)-1H-pyrazolo[4,3-b]pyridin-5-yl)-1-oxoisoindolin-2-yl) piperidine-2,6-dione] showed a pIC50 in assay [1] of 6.30 to 7.00. In addition, the DC50 in assay [2] was more than 10000 nM; in assay [3], 100 to 1000 nM. The Dmax in assay [2] was less than 20%; in assay [3] it was 60 to 80%.

Regarding `Cn1ccc2c(CN3CCC(O)C3)cc(-c3ccc4c(c3)CN(C3CCC(=O)NC3=O)C4=O)nc21` (stereo not shown) [Example 303, 3-(5-(4-((3-hydroxypyrrolidin-1-yl)methyl)-1-methyl-1H-pyrrolo[2,3-b]pyridin-6-yl)-1-oxoisoindolin-2-yl) piperidine-2,6-dione], in assay [1], the pIC50 was 5.30 to 6.00. Further, the DC50 was 10 to 100 nM in assay [2] and 1 to 10 nM in assay [3]. Further, the Dmax in assay [2] was 20 to 40%; in assay [3], more than 80%.

In turn, `CC(c1cc(-c2ccc3c(c2)CN(C2CCC(=O)NC2=O)C3=O)nc2c1ccn2C)N1CCCC1` (stereo not shown) [Example 87, 3-(5-(1-methyl-4-(1-(pyrrolidin-1-yl)ethyl)-1H-pyrrolo[2,3-b]pyridin-6-yl)-1-oxoisoindolin-2-yl) piperidine-2,6-dione] had a pIC50 in assay [1] of 6.30 to 7.00. Besides, the DC50 is more than 10000 nM in assay [2] and 100 to 1000 nM in assay [3]. Also, the Dmax in assay [2] and in assay [3] was less than 20% throughout.

Regarding `Cn1ccc2c(CN3CCCC3(C)C)cc(-c3ccc4c(c3)CN(C3CCC(=O)NC3=O)C4=O)nc21` (stereo not shown) [Example 113, 3-(5-(4-((2,2-dimethylpyrrolidin-1-yl)methyl)-1-methyl-1H-pyrrolo[2,3-b]pyridin-6-yl)-1-oxoisoindolin-2-yl) piperidine-2,6-dione], the pIC50 in assay [1] is 5.30 to 6.00. Further, the DC50 in assay [2] is 10 to 100 nM; in assay [3], less than 1 nM. In addition, the figures for the Dmax in assay [2] and in assay [3] were 20 to 40% and 60 to 80%, respectively.

`COCCn1ccc2c(CN3CCCC3)cc(-c3ccc4c(c3)CN(C3CCC(=O)NC3=O)C4=O)nc21` (stereo not shown) [Example 118, 3-(5-(1-(2-methoxyethyl)-4-(pyrrolidin-1-ylmethyl)-1H-pyrrolo[2,3-b]pyridin-6-yl)-1-oxoisoindolin-2-yl) piperidine-2,6-dione] had a pIC50 in assay [1] of 6.00 to 6.30. Besides, in assay [2], the DC50 was more than 10000 nM and the Dmax is less than 20%. In assay [3], the DC50 fell in the range of 1 to 10 nM and the Dmax was 40 to 60%.

In the case of `Nc1n[nH]c2c(CN3CC(F)C3)cc(-c3ccc4c(c3)CN(C3CCC(=O)NC3=O)C4=O)nc12` (stereo not shown) [Example 207, 3-(5-(3-amino-7-((3-fluoroazetidin-1-yl)methyl)-1H-pyrazolo[4,3-b]pyridin-5-yl)-1-oxoisoindolin-2-yl) piperidine-2,6-dione], in assay [1], the pIC50 is 6.30 to 7.00. Further, the values for the DC50 in assay [2] and in assay [3] were more than 10000 nM and 10 to 100 nM, respectively. In addition, the Dmax is less than 20% in assay [2] and 60 to 80% in assay [3].

Regarding `Nc1n[nH]c2c(CN3CCC3)cc(-c3ccc4c(c3)CN(C3CCC(=O)NC3=O)C4=O)nc12` (stereo not shown) [Example 208, 3-(5-(3-amino-7-(azetidin-1-ylmethyl)-1H-pyrazolo[4,3-b]pyridin-5-yl)-1-oxoisoindolin-2-yl) piperidine-2,6-dione], the pIC50 in assay [1] was more than 7.00. Besides, in assay [2], the DC50 was more than 10000 nM and the Dmax was less than 20%. In assay [3], the DC50 fell in the range of 100 to 1000 nM and the Dmax is 60 to 80%.

Consider `Cn1ccc2c(CN3CC(O)C3)cc(-c3ccc4c(c3)CN(C3CCC(=O)NC3=O)C4=O)nc21` (stereo not shown) [Example 306, 3-(5-(4-((3-hydroxyazetidin-1-yl)methyl)-1-methyl-1H-pyrrolo[2,3-b]pyridin-6-yl)-1-oxoisoindolin-2-yl) piperidine-2,6-dione], for which the pIC50 in assay [1] is 6.30 to 7.00. Moreover, in assay [2], the DC50 is 100 to 1000 nM and the Dmax fell in the range of 20 to 40%. In assay [3], the DC50 was in the range of 10 to 100 nM and the Dmax was more than 80%.

As for `O=C1CCC(N2Cc3cc(-c4cc(CN5CCCC5)c5nc[nH]c5n4)ccc3C2=O)C(=O)N1` (stereo not shown) [Example 145, 3-(1-oxo-5-(7-(pyrrolidin-1-ylmethyl)-3H-imidazo[4,5-b]pyridin-5-yl)isoindolin-2-yl) piperidine-2,6-dione], the pIC50 in assay [1] is 5.30 to 6.00. The DC50 in assay [2] is more than 10000 nM; in assay [3], 100 to 1000 nM. The Dmax in assay [2] and in assay [3] was less than 20% each time.

For `O=C1CCC(N2Cc3cc(-c4cc(CN5CCCC5)c5c(ccn5CCCO)n4)ccc3C2=O)C(=O)N1` (stereo not shown) [Example 173, 3-(5-(1-(3-hydroxypropyl)-7-(pyrrolidin-1-ylmethyl)-1H-pyrrolo[3,2-b]pyridin-5-yl)-1-oxoisoindolin-2-yl) piperidine-2,6-dione], the pIC50 in assay [1] was 5.30 to 6.00. In addition, in assay [2], the DC50 lay in the range of 100 to 1000 nM and the Dmax is 20 to 40%. Besides, in assay [3], the DC50 lay within 10 to 100 nM and the Dmax lay within 60 to 80%.

For `Cn1cc2c(CN3CCCC3)cc(-c3ccc4c(c3)CN(C3CCC(=O)NC3=O)C4=O)nc2n1` (stereo not shown) [Example 315, 3-(5-(2-methyl-4-(pyrrolidin-1-ylmethyl)-2H-pyrazolo[3,4-b]pyridin-6-yl)-1-oxoisoindolin-2-yl) piperidine-2,6-dione], the pIC50 in assay [1] was 6.30 to 7.00. In assay [2], the DC50 lay within 10 to 100 nM and the Dmax was 20 to 40%. Moreover, in assay [3], the DC50 was in the range of 10 to 100 nM and the Dmax is more than 80%.
